Source: patent US20230120205A1, “NERVE CELL DEGENERATION INHIBITOR” (KYOTO UNIVERSITY, priority 2020, published 2023)

Columns and labels:
[1] = test system: RAN translation; experiment: RAN translation inhibitory activity (poly-GP level by electrochemiluminescence); type: cell-based, human; conditions: two days after addition, poly-GP level vs DMSO; for inhibition at 1 µM / inhibition at 3 µM / inhibition at 10 µM: Homo sapiens, 48 h
Description: Next, the effect of the compound used in the present invention on RAN translation was examined. Among the DPRs generated by RAN translation, the poly-GP level was measured by an electrochemiluminescence system (Meso Scale Diagnostics).
ALS7 (C9orf72) cells were seeded on an assay plate in the same procedure as in Experimental Example 1. Four days after seeding, the assay medium containing no Y-27632 was added to the plate, and the cells were cultured until seven days after seeding, and the assay medium (Retinoic Acid, Doxycycline, SAG, Y-27632-free) containing the test compound at a predetermined concentration was added to the plate by medium exchange. Two days after addition of the test compound, the medium was removed, and the cells were lysed in an urea buffer consisting of 8M Urea (Wako, 219-00175), 4% CHAPS (Dojindo, 349-04722) and 30 mM Tris-HCl (pH 8.0, Nippon Gene, 312-90061). The cell lysate was added to a multi-array 384 well plate (Meso Scale Diagnostics, L21XB-4), and the plate was agitated at 700 rpm with a plate shaker (Azwan, DM-301) at room temperature, and then allowed to stand overnight at 4° C. The cell lysate was removed, a blocking buffer consisting of 5% Blocker A (Meso Scale Diagnostics, R93AA-1) and 1×TBS-T {TBS (Bio-Rad, 170-6435) containing 0.05% Tween-20 (Bio-Rad, 170-6531)} was added to the plate, and the plate was agitated at 700 rpm with a plate shaker for 1 hr at room temperature, and then washed three times with a wash buffer consisting of 0.05% Tween-20 and PBS (Wako, 162-18547). C9RANT antibody (Novus Biologicals, NBP2-25018) diluted 10,000-fold with 1×TBS-T containing 1% Blocker A was added to the plate, and the plate was agitated at 700 rpm with a plate shaker for 2 hr at 4° C., and then allowed to stand overnight at 4° C. After washing three times with the wash buffer, SULFO-TAG Goat Anti-Rabbit Antibody (Meso Scale Diagnostics, R32AB-1) diluted 500-fold with 1×TBS-T containing 1% Blocker A was added to the plate, and the plate was agitated at 700 rpm with a plate shaker for 2 hr at room temperature. After washing three times with the wash buffer, 2×MSD Read Buffer T with Surfactant (Meso Scale Diagnostics, R92TC-1) was added to the plate, and the signal derived from the C9RANT antibody was measured by MESO SECTOR S600 (Meso Scale Diagnostics).
The method for detecting the activity of the test compound is as follows.
(§1) As a negative control, the cells cultured in the assay medium supplemented with DMSO instead of the test compound were used.
RAN translation inhibitory activity of the test compound=100−X/C×100
X: poly-GP level in the test compound group, C: poly-GP level in the DMSO group

[2] = test system: ALS7 (C9orf72) cell-derived motor neurons; experiment: Cytotoxicity: intracellular ATP level (CellTiter-Glo); type: cell-based, human
Description: In order to examine the cytotoxicity of the test compound, the intracellular ATP level was measured.
ALS7 (C9orf72) cells were seeded on an assay plate in the same procedure as in Experimental Example 1. Four days after seeding, the assay medium containing no Y-27632 was added to the plate, and the cells were cultured until seven days after seeding, and the assay medium (Retinoic Acid, Doxycycline, SAG, Y-27632-free) containing the test compound at a predetermined concentration was added to the plate by medium exchange. 24 hr or 48 hr after addition of the test compound, the medium was removed, and CellTiter-Glo Luminescent Cell Viability Assay (Promega, G7570) was performed.
The method for detecting the cytotoxicity of the test compound is as follows.
as §1
The degree of the effect on the intracellular ATP level in the test compound-treated cells was defined as the ATP level of the test compound compared with the negative control, which was calculated by the following formula.
ATP level of the test compound compared to the negative control=X/C×100
X: ATP level in the test compound group, C: ATP level in the DMSO group
When the intracellular ATP level was less than 0.5 times or more than 1.5 times the intracellular ATP level in the negative control, it was judged to be cytotoxic.

## COc1cc(F)ccc1-c1ncnc(Nc2cccc(CS(C)(=N)=O)c2)n1 (centres unmarked) [Compound No. 1, 4-(4-fluoro-2-methoxyphenyl)-N-{3-[(S-methanesulfonimidoyl)methyl]phenyl}-1,3,5-triazin-2-amine]
[1]; 1 μM test compound
  inhibition at 1 µM: 1%
[1]; 3 μM test compound
  inhibition at 3 µM: 19%
[1]; 10 μM test compound
  inhibition at 10 µM: 18%
[2]; After 24 hr, 1 μM
  ATP level % compared to negative control: 92%
[2]; After 24 hr, 3 μM
  ATP level % compared to negative control: 107%
[2]; After 24 hr, 10 μM
  ATP level % compared to negative control: 134%
[2]; After 48 hr, 1 μM
  ATP level % compared to negative control: 91%
[2]; After 48 hr, 3 μM
  ATP level % compared to negative control: 89%
[2]; After 48 hr, 10 μM
  ATP level % compared to negative control: 122%

## COc1ccccc1-c1ncnc(Nc2cccc(CS(N)(=O)=O)c2)n1 [Compound No. 2, 1-(3-{[4-(2-methoxyphenyl)-1,3,5-triazin-2-yl]amino}phenyl)methanesulfonamide]
[1]; 1 μM test compound
  inhibition at 1 µM: > 1%
[1]; 3 μM test compound
  inhibition at 3 µM: 6%
[1]; 10 μM test compound
  inhibition at 10 µM: 15%
[2]; After 24 hr, 1 μM
  ATP level % compared to negative control: 98%
[2]; After 24 hr, 3 μM
  ATP level % compared to negative control: 89%
[2]; After 24 hr, 10 μM
  ATP level % compared to negative control: 101%
[2]; After 48 hr, 1 μM
  ATP level % compared to negative control: 99%
[2]; After 48 hr, 3 μM
  ATP level % compared to negative control: 74%
[2]; After 48 hr, 10 μM
  ATP level % compared to negative control: 53%

## COc1cc(Cl)ccc1-c1ncnc(Nc2cccc(CS(N)(=O)=O)c2)n1 [Compound No. 3, 1-(3-{[4-(4-chloro-2-methoxyphenyl)-1,3,5-triazin-2-yl]amino}phenyl)methanesulfonamide]
[1]; 1 μM test compound
  inhibition at 1 µM: > 1%
[1]; 3 μM test compound
  inhibition at 3 µM: 1%
[1]; 10 μM test compound
  inhibition at 10 µM: 4%
[2]; After 24 hr, 1 μM
  ATP level % compared to negative control: 104%
[2]; After 24 hr, 3 μM
  ATP level % compared to negative control: 97%
[2]; After 24 hr, 10 μM
  ATP level % compared to negative control: 106%
[2]; After 48 hr, 1 μM
  ATP level % compared to negative control: 105%
[2]; After 48 hr, 3 μM
  ATP level % compared to negative control: 87%
[2]; After 48 hr, 10 μM
  ATP level % compared to negative control: 69%

## NS(=O)(=O)Cc1cccc(Nc2ncnc(-c3ccccc3OCc3ccccc3)n2)c1.O=C(O)C(F)(F)F [Compound No. 4a, 1-[3-({4-[2-(benzyloxy)phenyl]-1,3,5-triazin-2-yl}amino)phenyl]methanesulfonamide trifluoroacetate]
[1]; 1 μM test compound
  RAN translation inhibitory activity %: 5%
[1]; 10 μM test compound
  RAN translation inhibitory activity %: 3%
[1]; 3 μM test compound
  inhibition at 3 µM: 11%
[2]; After 24 hr, 1 μM
  ATP level % compared to negative control: 113%
[2]; After 24 hr, 3 μM
  ATP level % compared to negative control: 128%
[2]; After 24 hr, 10 μM
  ATP level % compared to negative control: 140%
[2]; After 48 hr, 1 μM
  ATP level % compared to negative control: 80%
[2]; After 48 hr, 3 μM
  ATP level % compared to negative control: 101%
[2]; After 48 hr, 10 μM
  ATP level % compared to negative control: 115%

## NS(=O)(=O)Cc1cccc(Nc2ncnc(-c3ccccc3OCc3ccccc3)n2)c1 [Compound No. 4b, 1-[3-({4-[2-(benzyloxy)phenyl]-1,3,5-triazin-2-yl}amino)phenyl]methanesulfonamide]
[1]; 1 μM test compound
  RAN translation inhibitory activity %: 11%
[1]; 3 μM test compound
  RAN translation inhibitory activity %: 17%
[1]; 10 μM test compound
  RAN translation inhibitory activity %: 17%
[2]; After 24 hr, 1 μM
  ATP level % compared to negative control: 105%
[2]; After 24 hr, 3 μM
  ATP level % compared to negative control: 121%
[2]; After 24 hr, 10 μM
  ATP level % compared to negative control: 134%
[2]; After 48 hr, 1 μM
  ATP level % compared to negative control: 73%
[2]; After 48 hr, 3 μM
  ATP level % compared to negative control: 97%
[2]; After 48 hr, 10 μM
  ATP level % compared to negative control: 102%

## CS(=N)(=O)Cc1cccc(Nc2ncnc(-c3ccccc3OCc3ccc(Cl)c(Cl)c3)n2)c1 (centres unmarked) [Compound No. 5, 4-{2-[(3,4-dichlorophenyl)methoxy]phenyl}-N-{3-[(S-methanesulfonimidoyl)methyl]phenyl}-1,3,5-triazin-2-amine]
[1]; 1 μM test compound
  inhibition at 1 µM: 19%
[1]; 3 μM test compound
  inhibition at 3 µM: 16%
[1]; 10 μM test compound
  inhibition at 10 µM: 21%
[2]; After 24 hr, 1 μM
  ATP level % compared to negative control: 98%
[2]; After 24 hr, 3 μM
  ATP level % compared to negative control: 118%
[2]; After 24 hr, 10 μM
  ATP level % compared to negative control: 131%
[2]; After 48 hr, 1 μM
  ATP level % compared to negative control: 83%
[2]; After 48 hr, 3 μM
  ATP level % compared to negative control: 94%
[2]; After 48 hr, 10 μM
  ATP level % compared to negative control: 108%

## CCOC(=O)N=S(C)(=O)Cc1cccc(Nc2ncnc(-c3cccc4c3OCCO4)n2)c1 (centres unmarked) [Compound No. 6, ethyl {[(3-{[4-(2,3-dihydro-1,4-benzodioxin-5-yl)-1,3,5-triazin-2-yl]amino}phenyl)methyl](methyl)oxo-λ^6-sulfanylidene}carbamate]
[1]; 1 μM test compound
  inhibition at 1 µM: 16%
[1]; 10 μM test compound
  inhibition at 10 µM: 21%
[2]; After 24 hr, 1 μM
  ATP level % compared to negative control: 89%
[2]; After 24 hr, 3 μM
  ATP level % compared to negative control: 107%
[2]; After 24 hr, 10 μM
  ATP level % compared to negative control: 130%
[2]; After 48 hr, 1 μM
  ATP level % compared to negative control: 77%
[2]; After 48 hr, 3 μM
  ATP level % compared to negative control: 71%
[2]; After 48 hr, 10 μM
  ATP level % compared to negative control: 124%

## CCOC(=O)N=S(C)(=O)Cc1cccc(Nc2ncnc(-c3cccc4c3OCC4)n2)c1 (centres unmarked) [Compound No. 7, ethyl {[(3-{[4-(2,3-dihydro-1-benzofuran-7-yl)-1,3,5-triazin-2-yl]amino}phenyl)methyl](methyl)oxo-λ^6-sulfanylidene}carbamate]
[1]; 1 μM test compound
  inhibition at 1 µM: 4%
[1]; 3 μM test compound
  inhibition at 3 µM: 19%
[1]; 10 μM test compound
  inhibition at 10 µM: 17%
[2]; After 24 hr, 1 μM
  ATP level % compared to negative control: 89%
[2]; After 24 hr, 3 μM
  ATP level % compared to negative control: 105%
[2]; After 24 hr, 10 μM
  ATP level % compared to negative control: 126%
[2]; After 48 hr, 1 μM
  ATP level % compared to negative control: 86%
[2]; After 48 hr, 3 μM
  ATP level % compared to negative control: 87%
[2]; After 48 hr, 10 μM
  ATP level % compared to negative control: 112%
